# Reference: patent publication US8906935B2, “Thiazolyl- and oxazolyl-isoquinolinones and methods for using them” (priority 2008, dated 2014)
# Where a name gives a salt, the structure may show the parent alone.
# Target: T1, hrPARP-1 (human recombinant) (Homo sapiens, UniProt P09874)
# T1 construct: purchased Trevigen
# Experiment: Functional assessment of human PARP-1 enzymatic activity
# Format: biochemical
# Details: 1 U hrPARP-1, 15 μg/mL activated DNA, 5 μM NAD+, 20 min room temperature, fluorescence readout
# Experimental: Functional Assessment of Human PARP-1 Enzymatic Activity
# hrPARP-1 (human recombinant, Trevigen), Activated DNA (Sigma), 6(5H)-phenanthridinone (PND), (Sigma), NAD+ (Calbiochem), PARP-1 assay buffer (50 mM Tris, 2 mM MgCl2, pH 8.0), 20% acetophenone in EtOH, 2 M KOH 88% formic acid, 110° C. oven, Flexstation Plate Reader.
# Compound plates were prepared by making a series of 1:3 dilutions for each tested compound, 10 steps of each at 20 μL in DMSO starting from a concentration of 5 mM. NAD^+ (39 μL of a 6.4 μM solution) were added to each well of a 96-well flat bottom fluorescent assay plate. Test compound (1 μL) was added to each well. To initiate the reaction, 10 μL of PARP (contains 5 U of PARP and 75 μg/mL activated DNA) was added with a final 1 U hrPARP-1, 15 μg/mL activated DNA and 5 μM of NAD^+. The highest concentration used for test compounds was 100 μM. The plates were incubated at room temperature on a shaker, After 20 min, 20 μL of 2 M KOH and 20 μL of 20% acetophenone were added. The plate was incubated 10 min. at 4° C., and 90 μL of 88% formic acid was added. After incubating in a 110° C. oven for 5 min, the plate was cooled to room temperature and read of a Flexstation Plate Reader (excitation at 360 nm, emission at 445 nm).
# LSW data analysis software was used to generate PARP-1 IC50s.
# T1 sequence (P09874 whole entry): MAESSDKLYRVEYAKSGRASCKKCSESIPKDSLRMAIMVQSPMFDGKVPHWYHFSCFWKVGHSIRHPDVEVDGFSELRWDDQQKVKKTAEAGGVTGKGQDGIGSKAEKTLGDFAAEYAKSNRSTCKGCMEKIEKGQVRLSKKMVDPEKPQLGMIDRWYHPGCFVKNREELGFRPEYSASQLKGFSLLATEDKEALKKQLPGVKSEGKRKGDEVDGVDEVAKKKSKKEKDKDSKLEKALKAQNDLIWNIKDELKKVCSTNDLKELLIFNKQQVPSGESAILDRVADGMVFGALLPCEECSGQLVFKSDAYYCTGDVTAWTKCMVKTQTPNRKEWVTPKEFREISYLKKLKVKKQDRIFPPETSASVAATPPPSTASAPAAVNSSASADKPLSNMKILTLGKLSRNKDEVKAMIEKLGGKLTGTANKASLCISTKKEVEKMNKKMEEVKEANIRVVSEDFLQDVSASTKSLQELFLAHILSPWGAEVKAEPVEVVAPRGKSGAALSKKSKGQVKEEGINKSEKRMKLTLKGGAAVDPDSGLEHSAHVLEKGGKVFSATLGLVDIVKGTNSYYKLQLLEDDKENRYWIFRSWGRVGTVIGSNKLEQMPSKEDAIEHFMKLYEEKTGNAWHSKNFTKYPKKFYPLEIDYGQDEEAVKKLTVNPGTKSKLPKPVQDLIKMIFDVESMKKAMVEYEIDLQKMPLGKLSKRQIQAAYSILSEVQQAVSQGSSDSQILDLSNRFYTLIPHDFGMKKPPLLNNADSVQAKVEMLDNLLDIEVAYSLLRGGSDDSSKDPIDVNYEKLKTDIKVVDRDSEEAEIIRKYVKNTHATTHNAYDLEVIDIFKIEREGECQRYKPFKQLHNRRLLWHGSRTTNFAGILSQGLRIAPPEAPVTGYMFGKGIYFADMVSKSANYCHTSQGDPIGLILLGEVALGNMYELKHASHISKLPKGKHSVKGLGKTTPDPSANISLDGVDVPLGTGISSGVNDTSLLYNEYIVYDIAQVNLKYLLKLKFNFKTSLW
row,SMILES,IC50
1,"O=c1[nH]c2sc(CN3CCCC4CCCCC43)nc2c2c(O)cccc12 (stereo not shown) [Example 9, 9-Hydroxy-2-(octahydroquinolin-1(2H)-ylmethyl)[1,3]thiazolo[5,4-c]isoquinolin-5(4H)-one]",2450 nM
2,"O=c1[nH]c2sc(CN3CCCC3)nc2c2c(O)cccc12 [Example 7, 9-Hydroxy-2-(pyrrolidin-1-ylmethyl)[1,3]thiazolo[5,4-c]isoquinolin-5(4H)-one]",111 nM
3,"O=c1[nH]c2sc(CN3CCOCC3)nc2c2c(O)cccc12 [Example 5, 9-Hydroxy-2-(morpholin-4-ylmethyl)[1,3]thiazolo[5,4-c]isoquinolin-5(4H)-one]",18.3 nM
4,"CN(C)Cc1nc2c([nH]c(=O)c3cccc(O)c32)s1 [Example 4, 2-((Dimethylamino)methyl)-9-hydroxythiazolo[5,4-c]isoquinolin-5(4H)-one]",99 nM
5,"CN(C)CCc1nc2c([nH]c(=O)c3ccccc32)s1 [Example 3, 2-(2-(Dimethylamino)ethyl)thiazolo[5,4-c]isoquinolin-5(4H)-one]",358 nM
6,"O=c1[nH]c2sc(CN3CCC[C@@H]3C(F)(F)F)nc2c2c(O)cccc12 [Example 12, 9-Hydroxy-2-{[(2R)-2-(trifluoromethyl)pyrrolidin-1-yl]methyl}[1,3]thiazolo[5,4-c]isoquinolin-5(4H)-one]",3500 nM

# Results, then the compound that gave them:
row,IC50,SMILES
1,747 nM,"CC1CCCN1Cc1nc2c([nH]c(=O)c3cccc(O)c32)s1 (stereo not shown) [Example 11, 9-Hydroxy-2-[(2-methylpyrrolidin-1-yl)methyl][1,3]thiazolo[5,4-c]isoquinolin-5(4H)-one]"
2,378 nM,"CN(C)Cc1nc2c([nH]c(=O)c3ccccc32)s1 [Example 1, 2-[(Dimethylamino)methyl][1,3]thiazolo[5,4-c]isoquinolin-5(4H)-one hydrochloride]"
3,414 nM,"CN(C)CC#Cc1nc2c([nH]c(=O)c3ccccc32)s1 [Example 2, 2-[3-(Dimethylamino)prop-1-yn-1-yl][1,3]thiazolo[5,4-c]isoquinolin-5(4H)-one]"
4,1500 nM,"C[C@@H]1CCC[C@H](C)N1Cc1nc2c([nH]c(=O)c3cccc(O)c32)s1 [Example 13, 2-{[(2R,6S)-2,6-Dimethylpiperidin-1-yl]methyl}-9-hydroxy[1,3]thiazolo[5,4-c]isoquinolin-5(4H)-one]"
5,223 nM,"CN(C)[C@@H]1CCN(Cc2nc3c([nH]c(=O)c4cccc(O)c43)s2)C1 [Example 8, 2-{[(3R)-3-(dimethylamino)pyrrolidin-1-yl]methyl}-9-hydroxy[1,3]thiazolo[5,4-c]isoquinolin-5(4H)-one]"
6,3090 nM,"C[C@@H]1CN(Cc2nc3c([nH]c(=O)c4cccc(O)c43)s2)C[C@H](C)O1 [Example 10, 2-{[(2R,6S)-2,6-Dimethylmorpholin-4-yl]methyl}-9-hydroxy[1,3]thiazolo[5,4-c]isoquinolin-5(4H)-one]"
7,1370 nM,"O=c1[nH]c2sc(CN3CCCCC3)nc2c2c(O)cccc12 [Example 6, 9-Hydroxy-2-(piperidin-1-ylmethyl)[1,3]thiazolo[5,4-c]isoquinolin-5(4H)-one]"
